Measured values as given in US20210196672A1, “COMPOSITIONS COMPRISING 3'-O-METHYL-5-O-SULFATE EPICATECHIN AND THERAPEUTIC USES OF SUCH COMPOSITIONS” (NESTEC S.A., priority 2016, published 2021).

Test system: endothelial nitric oxide synthase
Experiment: eNOS phosphorylation level in isolated aortic rat rings (western blot)
Type: cell-based
Settings: isolated thoracic aortic rings of male adult Wistar rats, 1 h incubation, relative to the control (DMSO 1%) and chemically similar epicatechins, FIG. 2
Procedure: Comparative experiments were conducted on the expression of endothelial nitric oxide synthase in isolated aortic rat rings.
Thoracic aortas were obtained from male adults Wistar rats after euthanasia. Each aorta was carefully dissected and harvested cleaned of excess tissue and cut into three equal segments, approximately 7 mm long. All aortic rings were pre-incubated for 30 min in Krebs solution (20 mM Hepes buffer, pH 7.4, containing 119 mM NaCl, 4.7 mM KCl, 1 mM MgSO4, 0.4 mM NaH2PO4, 0.15 mM Na2HPO4, 5 mM NaHCO3, 1.25 mM CaCl2, 5.5 mM glucose) aerated with 95% 02 and 5% CO2 at 37° C. and then incubated with vehicle (DMSO 1%) or the different metabolites for 1 h. Metabolites were first dissolved in DMSO 1% and tested in a final concentration […]. At the end of the incubation period aortic rings were frozen at −70° C. until the homogenate preparation. Homogenates for western blot and western blot determinations were carried out by the regular procedures and phosphorylation level of endothelial nitric oxide synthase was evaluated.

In the case of `COc1cc([C@H]2Oc3cc(O)cc(OS(=O)(=O)O)c3C[C@H]2O)ccc1O` [3′-O-methyl-5-O-sulfate epicatechin], the eNOS phosphorylation is reported as “increased eNOS phosphorylation relative to the control and chemically similar epicatechins”.
